Measured values: ChEMBL document CHEMBL1201862, “PubChem BioAssay data set” (2004)
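Protocol summary: plate cells (96-well), add compound at 5 concentrations, incubate 48 h, interpolate endpoints linearly. GI50 is the concentration that inhibits growth by half.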 Calls of active or inactive are those of the source. No stated cut-off is given here; in the data, active = GI50 up to about 1.1 µM and inactive = higher.

What was measured:
Assay in all cases: inhibition of tumour cell growth, NCI panel, 48 h
CAKI-1 = tested on: CAKI-1
HCT-116 = tested on: HCT-116
HOP-62 = tested on: HOP-62
HOP-92 = tested on: HOP-92
HT-29 = tested on: HT-29
IGROV-1 = tested on: IGROV-1
K562 = tested on: K562
KM12 = tested on: KM12
Malme-3M = tested on: Malme-3M
NCI-H226 = tested on: NCI-H226
NCI-H460 = tested on: NCI-H460
NCI-H522 = tested on: NCI-H522
OVCAR-8 = tested on: OVCAR-8
RPMI-8226 = tested on: RPMI-8226
SF-295 = tested on: SF-295
SK-MEL-5 = tested on: SK-MEL-5
SNB-19 = tested on: SNB-19
SNB-75 = tested on: SNB-75
UACC-62 = tested on: UACC-62
TK-10 = tested on: TK-10

Compound | GI50 (CAKI-1) | GI50 (HCT-116) | GI50 (HOP-62) | GI50 (HOP-92) | GI50 (HT-29) | GI50 (IGROV-1) | GI50 (K562) | GI50 (KM12) | GI50 (Malme-3M) | GI50 (NCI-H226) | GI50 (NCI-H460) | GI50 (NCI-H522) | GI50 (OVCAR-8) | GI50 (RPMI-8226) | GI50 (SF-295) | GI50 (SK-MEL-5) | GI50 (SNB-19) | GI50 (SNB-75) | GI50 (UACC-62) | GI50 (TK-10)
Cc1c2cnccc2c(C)c2c1c1ccccc1n2CCCCCCNCc1ccccc1 | 1.89 µM (inactive) | 0.649 µM (active) | 4.17 µM (inactive) | 2.03 µM (inactive) | 1.36 µM (inactive) | 1.8 µM (inactive) | 0.541 µM (active) | 1.21 µM (inactive) | 2.44 µM (inactive) | 1.55 µM (inactive) | 0.538 µM (active) | 2.15 µM (inactive) | 0.883 µM (active) | 0.766 µM (active) | 1.82 µM (inactive) | 2.36 µM (inactive) | 1.88 µM (inactive) | 2.05 µM (inactive) | 2.32 µM (inactive) | 
COc1ccc2c(c1)CC1Cc3ccccc3CCN1C2 (stereo not drawn) | 20.3 µM (inactive) | 40.1 µM (inactive) | 6.14 µM (inactive) | 27.7 µM (inactive) | 32.4 µM (inactive) | 38 µM (inactive) | 56.2 µM (inactive) | 21.6 µM (inactive) | 42.3 µM (inactive) | 89.1 µM (inactive) | 38.9 µM (inactive) | 15.3 µM (inactive) | > 100 µM (inactive) | 39.5 µM (inactive) | 29.2 µM (inactive) | 20.2 µM (inactive) | 55 µM (inactive) | > 100 µM (inactive) | 55.1 µM (inactive) | 24.5 µM (inactive)
C=C(C(=O)C(=O)Oc1ccc(Cl)cc1)C(=O)c1ccc(C)cc1 | 94.4 µM (inactive) | 16.7 µM (inactive) | > 100 µM (inactive) | > 100 µM (inactive) | 31.1 µM (inactive) | > 100 µM (inactive) | 81.5 µM (inactive) | 21.5 µM (inactive) | 78.3 µM (inactive) | > 100 µM (inactive) | 83 µM (inactive) | 17.9 µM (inactive) | 55.3 µM (inactive) | 31.9 µM (inactive) | 76 µM (inactive) | 67.6 µM (inactive) | 53.2 µM (inactive) | 39.2 µM (inactive) | 41.4 µM (inactive) | > 100 µM (inactive)
O=C(O)c1cc2sc(C(=O)O)cc2s1 | > 100 µM (inactive) | > 100 µM (inactive) | > 100 µM (inactive) | > 100 µM (inactive) | > 100 µM (inactive) | > 100 µM (inactive) | > 100 µM (inactive) | > 100 µM (inactive) | > 100 µM (inactive) | > 100 µM (inactive) | > 100 µM (inactive) | > 100 µM (inactive) |  | > 100 µM (inactive) | > 100 µM (inactive) | > 100 µM (inactive) | > 100 µM (inactive) | > 100 µM (inactive) | > 100 µM (inactive) | > 100 µM (inactive)
CC[C@](C)(O)C(=O)O[C@H]1C(=O)O[C@@H]2C[C@H]3C(C)=C[C@H](O)[C@@H](O)[C@]3(C)[C@H]3[C@@]4(O)OC[C@]32[C@@H]1[C@@H](C)[C@H]4O | 27.5 µM (inactive) | 14.7 µM (inactive) | 35.1 µM (inactive) | 4.28 µM (inactive) | 29.9 µM (inactive) | 7.19 µM (inactive) | 8.3 µM (inactive) | 21.6 µM (inactive) | 8.93 µM (inactive) | 17.7 µM (inactive) | 9.73 µM (inactive) | 3.58 µM (inactive) | 34 µM (inactive) | 4.34 µM (inactive) | 46.5 µM (inactive) | 9.48 µM (inactive) | 9.79 µM (inactive) | 24.2 µM (inactive) | 19.3 µM (inactive) | 
CC(=O)Nc1ccc(OCC(O)CO)cc1 (stereo not drawn) | > 100 µM (inactive) | > 100 µM (inactive) | > 100 µM (inactive) | > 100 µM (inactive) | > 100 µM (inactive) | > 100 µM (inactive) | 16.8 µM (inactive) | > 100 µM (inactive) | > 100 µM (inactive) | > 100 µM (inactive) | > 100 µM (inactive) | > 100 µM (inactive) | > 100 µM (inactive) | 21.2 µM (inactive) | > 100 µM (inactive) | > 100 µM (inactive) | > 100 µM (inactive) | > 100 µM (inactive) | > 100 µM (inactive) | > 100 µM (inactive)
CC(=O)OCC1OC(n2c(-c3ccc(C)cc3)cc(-c3ccco3)c(C#N)c2=S)C(OC(C)=O)C(OC(C)=O)C1OC(C)=O (stereo not drawn) | > 100 µM (inactive) | 29 µM (inactive) | 42.7 µM (inactive) | 16.6 µM (inactive) | > 100 µM (inactive) | 98.4 µM (inactive) | > 100 µM (inactive) | > 100 µM (inactive) | > 100 µM (inactive) | 25.2 µM (inactive) | 24.7 µM (inactive) | 50.4 µM (inactive) | 25.8 µM (inactive) | > 100 µM (inactive) | > 100 µM (inactive) | 65.2 µM (inactive) | 32.5 µM (inactive) | 25.1 µM (inactive) | 18.2 µM (inactive) | 52.1 µM (inactive)
O=C(CC12C3C4C1C1C2C3C41CC(=O)NO)NO (stereo not drawn) | 71.8 µM (inactive) | 42.4 µM (inactive) | 40.8 µM (inactive) | 39.3 µM (inactive) | 29.4 µM (inactive) |  | 25.2 µM (inactive) | 38.8 µM (inactive) | 31 µM (inactive) | 34 µM (inactive) | 23.4 µM (inactive) | 27.7 µM (inactive) | 33.1 µM (inactive) | 40.3 µM (inactive) | 27.1 µM (inactive) | 27.4 µM (inactive) | > 100 µM (inactive) | 29.6 µM (inactive) | 37.6 µM (inactive) | > 100 µM (inactive)
COc1ccc(C(=O)C(C(=O)CCC(=O)Nc2ccc(Cl)c(Cl)c2)c2ccc(OC)cc2)cc1 (stereo not drawn) | > 100 µM (inactive) | > 100 µM (inactive) | > 100 µM (inactive) | > 100 µM (inactive) | > 100 µM (inactive) | > 100 µM (inactive) | > 100 µM (inactive) | > 100 µM (inactive) | > 100 µM (inactive) | > 100 µM (inactive) | > 100 µM (inactive) | > 100 µM (inactive) | > 100 µM (inactive) | > 100 µM (inactive) | > 100 µM (inactive) | > 100 µM (inactive) | > 100 µM (inactive) | 44.9 µM (inactive) | > 100 µM (inactive) | > 100 µM (inactive)
COc1cc2c(cc1OC)-c1cc3ccccc3c(=O)n1CC2 | 27.2 µM (inactive) | 10.4 µM (inactive) | 5.19 µM (inactive) | 14.1 µM (inactive) | 24.8 µM (inactive) | 19.5 µM (inactive) | 26.1 µM (inactive) | 13.2 µM (inactive) | 16.4 µM (inactive) | 26.8 µM (inactive) | 28.2 µM (inactive) | 16.1 µM (inactive) | 29 µM (inactive) | 13.7 µM (inactive) | 15.3 µM (inactive) | 7.26 µM (inactive) | 43.7 µM (inactive) | 11.9 µM (inactive) | 18.2 µM (inactive) | 19.9 µM (inactive)
c1ccc(/N=C2\SC3=NCCN3\C2=N/c2ccccc2)cc1 | 17.9 µM (inactive) | 13.6 µM (inactive) | 18.7 µM (inactive) | 27.1 µM (inactive) | 16.4 µM (inactive) | > 10 µM (inactive) | 4.24 µM (inactive) | 15.9 µM (inactive) | > 10 µM (inactive) | 20.6 µM (inactive) | 20.7 µM (inactive) | 13.6 µM (inactive) | 25.9 µM (inactive) | 16.3 µM (inactive) | 17.5 µM (inactive) | 15.5 µM (inactive) | 17.1 µM (inactive) | 18 µM (inactive) | 7.38 µM (inactive) | 
O=C(CCN(CCO)CCO)Nc1ccc2c(c1)C(=O)c1ccc(NC(=O)CCN(CCO)CCO)cc1C2=O | 5.56 µM (inactive) | 7.36 µM (inactive) | 29.4 µM (inactive) | 26.7 µM (inactive) | 28.1 µM (inactive) | 13.7 µM (inactive) | 18.5 µM (inactive) | 14.4 µM (inactive) | 12.8 µM (inactive) | 6.95 µM (inactive) | 10.8 µM (inactive) | 5.89 µM (inactive) | 14 µM (inactive) | 14.6 µM (inactive) | > 100 µM (inactive) | 17.2 µM (inactive) | 22.5 µM (inactive) | 30.8 µM (inactive) | 3.44 µM (inactive) | 13.4 µM (inactive)
NC1(C(=O)O)CCCC1 [CYCLOLEUCINE] | > 625 µM (inactive) | > 625 µM (inactive) | > 625 µM (inactive) | > 625 µM (inactive) | > 625 µM (inactive) | > 625 µM (inactive) | > 625 µM (inactive) | > 625 µM (inactive) | > 625 µM (inactive) | > 625 µM (inactive) | > 625 µM (inactive) | > 625 µM (inactive) | > 625 µM (inactive) | > 625 µM (inactive) | > 625 µM (inactive) | > 625 µM (inactive) | > 99.1 µM (inactive) | > 625 µM (inactive) | > 625 µM (inactive) | 
Nc1n[nH]c2nc3ccccc3nc12 [QUINOXALINE1] | 31.9 µM (inactive) | 31 µM (inactive) | 61 µM (inactive) | > 100 µM (inactive) | 59.6 µM (inactive) | 18.1 µM (inactive) | > 100 µM (inactive) |  | > 100 µM (inactive) | 91.8 µM (inactive) | 84.7 µM (inactive) | 44.1 µM (inactive) | > 100 µM (inactive) | 36.1 µM (inactive) | > 100 µM (inactive) | > 100 µM (inactive) | > 100 µM (inactive) | 37.1 µM (inactive) | 45 µM (inactive) | 70.1 µM (inactive)
